Measured values: EP0467365A2, “Use of a 5-hydroxytryptamine-3(5-HT3) receptor antagonist for the preparation of a pharmaceutical composition for treating urinary incontinence” (E.R. SQUIBB & SONS, INC., priority 1990, dated 1992)
“Also recorded” adds a separate entry of the source. Structures can show the parent of a compound that is named as a salt. Where two headings read alike, the source gives them in different places.

Tests used:
Format in all cases: cell-based
rabbit bladder strips = assay: 5-HT-induced contraction of rabbit bladder (detrusor) strips, organ bath tension recording; details: for inhibition of the 5-HT contractions: atropine 10^-7M, α,β-methylene ATP 10^-6M; for antagonism of the 5-HT-induced contraction / pA2: 30 minutes exposure; for antagonism of the 5-HT-induced contraction: BRL 43694 5 x 10^-11 to 2 x 10^-10M, ICS 205930 5 x 10^-12 to 1 x 10^-10M, MDL 72222 5 x 10^-10 to 5 x 10^-9M; for pA2: antagonism of 5-HT-induced contraction, rabbit detrusor strips, Schild plot, mean ± s.e.mean; for atropine and α,β-methylene ATP-resistant component of 5-HT-induced contraction: bladder strips, in presence of atropine and α,β-methylene ATP; for effect on the contractile response to 5-HT: ketanserine 10^-7 to 10^-6M, methysergide and metitepine 10^-8 to 10^-7M, anterior detrusor of female rabbits
urethra = assay: 5-HT-induced contraction of rabbit urethra strips, organ bath tension recording; details: 30-second application, 10^-6 to 10^-3M
rabbit bladder = assay: Contractile response of rabbit bladder strips to electrical field stimulation of intrinsic nerves; details: for effect on the response to field stimulation: α,β-methylene ATP dose-dependent, all frequencies

NCCc1c[nH]c2ccc(O)cc12 [5-HT, 5-Hydroxytryptamine creatinine sulphate complex]
contraction in the rabbit bladder (rabbit bladder strips; 30-second application, 10^-8 to 10^-3M): dose-dependent contraction | contraction in the urethra (urethra): dose-dependent contraction

CN1[C@@H]2CC[C@H]1CC(OC(=O)C(CO)c1ccccc1)C2.CN1[C@@H]2CC[C@H]1CC(OC(=O)C(CO)c1ccccc1)C2.O=S(=O)(O)O (stereo partly drawn) [Atropine, Atropine sulphate]
inhibition of the 5-HT contractions (rabbit bladder strips): partially inhibited | inhibition of the response to field stimulation (maximum) (rabbit bladder; 20 minute pretreatment, 10^-8 to 10^-6M, maximum at high frequencies): 40% | control response to field stimulation still persisting (rabbit bladder; atropine 10^-8 to 10^-6M, 5-50 Hz, posterior detrusor of male rabbits): approximately 60% | effect on the response to field stimulation (rabbit bladder; atropine 10^-8 to 10^-6M): only partially inhibited

CN1C2CCCC1CC(NC(=O)c1nn(C)c3ccccc13)C2 (stereo not drawn) [BRL 43694, [endo]N-(9-methyl-9-azabicyclo-[3,3,1]-non-3-yl)-1-methyl-1H-indazole-3-carboxamide hydrochloride]
antagonism of the 5-HT-induced contraction (rabbit bladder strips; hydrochloride): strongly and competitively antagonized; also recorded: dose-dependent inhibition | antagonism of the 5-HT-induced contraction (rabbit bladder strips; listed as BRL 43695, hydrochloride): effective at blocking | pA2 (rabbit bladder strips): 10.5 ± 0.01 | atropine and α,β-methylene ATP-resistant component of 5-HT-induced contraction (rabbit bladder strips): not abolished

CN1[C@@H]2CC[C@H]1C[C@@H](OC(=O)c1c[nH]c3ccccc13)C2 [ICS 205930, 3a-tropanyl-1 H-indole-3-carboxylic acid ester]
antagonism of the 5-HT-induced contraction (rabbit bladder strips): strongly and competitively antagonized; also recorded: effective at blocking | antagonism of the 5-HT-induced contraction (rabbit bladder strips; listed as ICS 205-930): most potent antagonistic effect | pA2 (rabbit bladder strips): 12.5 ± 0.36 | atropine and α,β-methylene ATP-resistant component of 5-HT-induced contraction (rabbit bladder strips): not abolished

CN1[C@@H]2CC[C@H]1C[C@@H](OC(=O)c1cc(Cl)cc(Cl)c1)C2 [MDL 72222, laH,3a,5aH-tropan-3-yl-3,5-dichlorobenzoate]
antagonism of the 5-HT-induced contraction (rabbit bladder strips): strongly and competitively antagonized; also recorded: dose-dependent inhibition; also recorded: effective at blocking | pA2 (rabbit bladder strips): 9.3 ± 0.04 | atropine and α,β-methylene ATP-resistant component of 5-HT-induced contraction (rabbit bladder strips): not abolished | effect on the contraction to field stimulation (rabbit bladder; 10^-7M): no effect

NC1=N[C@H](O)[C@H]2[C@H]3O[C@]4(O)O[C@@H]([C@@H](O)[C@@]2(N1)[C@@H]4O)[C@]3(O)CO [TTX, Tetrodotoxin]
effect on the 5-HT-induced contraction of the rabbit bladder (rabbit bladder strips): did not affect; also recorded: no effect | abolition of the responses to field stimulation (rabbit bladder): complete; also recorded: completely blocks

C[N+](C)(C)CCCCCC[N+](C)(C)C [hexamethonium, Hexamethonium bromide]
effect on the 5-HT-induced contraction of the rabbit bladder (rabbit bladder strips): did not affect; also recorded: not blocked

CC[C@@H](CO)NC(=O)[C@@H]1C=C2c3cccc4c3c(cn4C)C[C@H]2N(C)C1 [methysergide, Methysergide bimaleate]
atropine and α,β-methylene ATP-resistant component of 5-HT-induced contraction (rabbit bladder strips): not abolished | effect on the contractile response to 5-HT (rabbit bladder strips): no significant effect

Cc1ccc(N(CC2=NCCN2)c2cccc(O)c2)cc1 [phentolamine, Phentolamine mesylate]
effect on the 5-HT-induced contraction of the rabbit bladder (rabbit bladder strips): did not affect; also recorded: not blocked

COc1cc2nc(N3CCN(C(=O)c4ccco4)CC3)nc(N)c2cc1OC [prazosin, Prazosin hydrochloride]
effect on the 5-HT-induced contraction of the rabbit bladder (rabbit bladder strips; hydrochloride): did not affect; also recorded: not blocked

Nc1ncnc2c1ncn2C1OC(COP(=O)(O)CP(=O)(O)OP(=O)(O)O)C(O)C1O (stereo not drawn) [α,β-methylene ATP, α,β-Methyleneadenosine 5'-Triphosphate]
inhibition of the 5-HT contractions (rabbit bladder strips): partially inhibited | inhibition of the response to field stimulation (rabbit bladder; 10^-6M): about 35% | effect on the response to field stimulation (rabbit bladder; atropine 10^-8 to 10^-6M): dose-dependent inhibition

Ketanserine tartrate
atropine and α,β-methylene ATP-resistant component of 5-HT-induced contraction (rabbit bladder strips): not abolished | effect on the contractile response to 5-HT (rabbit bladder strips): no effect | effect on the contractile response to 5-HT (rabbit bladder strips; listed as ketanserine): no significant effect

Metitepine monomethanesulfonate
atropine and α,β-methylene ATP-resistant component of 5-HT-induced contraction (rabbit bladder strips): not abolished | effect on the contractile response to 5-HT (rabbit bladder strips): no significant effect
